Measured values reported in patent publication US20050176813A1, “Novel chalcone derivatives and uses thereof” (priority 2002, published 2005).
Where two headings read alike, the source gives them in different places.

Columns and labels:
[1] = target: Kv1.3 (Homo sapiens, UniProt P22001); test: Kv1.3 channel block, estimated Kd (Table 1); assay type: binding; details: for Block phasic or not: Kv1.3
[2] = Cytotoxicity in vitro (remark in Table 1, summary of Table 2); assay type: cell-based; details: cells not given
Description: Jurkat E6-1 and MEL were seeded at 5×10^5 cells/ml in twelve-well plates. Drug (100 nM, 1 μM, 2.5 μM and 10 μM) was added in a final DMSO concentration of 0.1%. After 48 h of incubation, cells were harvested by sucking them off the plates. Cells were centrifuged, resuspended in 0.5 ml PBS containing 1 μg/ml propidium iodide (PI), and red fluorescence measured on a FACScan flow cytometer (Becton Dickinson) after 20 min (10^4 cells of every sample being analyzed). The percentage of dead cells was determined by their PI uptake. Incubation with 20% DMSO served as a control for setting the gates of the flow cytometer for dead cells.

[3] = system: human peripheral blood lymphocytes; test: Proliferation test, [3H]-thymidine incorporation assay, anti-CD3 stimulated; assay type: cell-based; details: Homo sapiens, Lymphocyte; anti-CD3 stimulation, 48 h; read-out: EC50, suppression of proliferation of human peripheral blood lymphocytes
Description: Proliferation Test [^3H]-Thymidine Incorporation Assay
Resting peripheral blood mononuclear cells from healthy volunteers were seeded at 2×10^5 cells per well in medium (RPMI 1640 supplemented 10% fetal calf serum, 2 mM glutamine, 1 mM sodium pyruvate, 1% nonessential amino acids, 100 units/ml penicillin, 100 μg/ml streptomycin and 50 μM β-mercaptoethanol) in flat-bottom 96 well plates (final volume 200 μl). Cells pre-incubated with drug (60 min), were stimulated with 5 ng/ml anti-CD3 Ab) for 48 h. [^3H]-Thymidine (1 μCi per well) was added for the last 6 h. Cells were harvested onto glass fibre filters and radioactivity measured in a scintillation counter. All experiments were done in triplicate. Results are reported as normalised for maximum [^3H]-thymidine incorporation for controls.

[4] = Kv1.3, end, read-out: Est. Kd, Kd end
[5] = Kv1.3, peak, read-out: Est. Kd, Kd peak

Kv1.3, sequence (P22001 whole entry): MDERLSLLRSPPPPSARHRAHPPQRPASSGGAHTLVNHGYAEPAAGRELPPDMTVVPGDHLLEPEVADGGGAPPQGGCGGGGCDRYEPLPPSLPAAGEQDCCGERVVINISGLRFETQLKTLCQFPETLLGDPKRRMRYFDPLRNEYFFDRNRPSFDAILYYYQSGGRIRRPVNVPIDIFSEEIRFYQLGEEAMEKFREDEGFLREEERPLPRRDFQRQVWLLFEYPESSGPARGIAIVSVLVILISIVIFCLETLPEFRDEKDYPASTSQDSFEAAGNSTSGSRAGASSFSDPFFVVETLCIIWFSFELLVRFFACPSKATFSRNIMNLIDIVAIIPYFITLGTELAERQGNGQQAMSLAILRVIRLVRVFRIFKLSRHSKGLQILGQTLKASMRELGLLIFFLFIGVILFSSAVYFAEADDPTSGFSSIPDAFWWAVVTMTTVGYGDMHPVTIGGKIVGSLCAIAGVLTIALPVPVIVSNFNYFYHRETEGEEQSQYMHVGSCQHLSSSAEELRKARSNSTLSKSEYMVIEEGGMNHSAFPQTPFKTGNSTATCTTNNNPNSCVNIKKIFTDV

Row | SMILES | Kd [1, 4] [µM] | Kd [1, 5] [µM] | melting point [°C] | also measured
1 | COc1c(C(=O)/C=C/c2ccc[nH]2)c(O)c(OC)c2occc12 [Example 51] | 9 | 30 |  | 
2 | COc1c(C(=O)/C=C/c2ccc(C#N)cc2)c(O)c(OC)c2occc12 [Example 11] |  | 12 | 196 to 198 | Block phasic or not [1]: not phasic
3 | COc1c(C(=O)/C=C/C=C/c2ccccc2)c(O)c(OC)c2occc12 [Example 40] |  |  |  | Effect on Kv1.3 ([1]; at 1 μM): no effect at 1 μM Not tested against other channels
4 | COc1c(C(=O)/C=C/c2ccccc2Cl)c(O)c(OC)c2occc12 [Example 7] |  | 12 | 160 to 161 | Block phasic or not [1]: not phasic
5 | COc1c(C(=O)/C=C/c2ccc(NC(C)=O)cc2)c(O)c(OC)c2occc12 [Example 6] |  | 35 | 180 to 181 | Block phasic or not [1]: not phasic
6 | COc1c(C(=O)CCc2ccccc2)c(O)c(OC)c2occc12 [Example 2] | 0.3 | 0.8 |  | 
7 | COc1c(C(=O)/C=C/c2cccc(Oc3ccc(C)cc3)c2)c(O)c(OC)c2occc12 [Example 37] |  |  |  | Effect on Kv1.3 ([1]; at 1 μM): no effect at 1 μM Not tested against other channels
8 | COc1c(C(=O)/C=C/C=C/c2ccc(N(C)C)cc2)c(O)c(OC)c2occc12 [Example 44] |  | 22 |  | Block phasic or not [1]: not phasic
9 | COc1c(C(=O)/C=C/c2cccc([N+](=O)[O-])c2)c(O)c(OC)c2occc12 [Example 28] |  |  | 97 to 98 | block ([1]; Kv1.3, at 5 μM): 5-10% block at 5 μM
10 | COc1c(C(=O)/C=C/c2sccc2C)c(O)c(OC)c2occc12 [Example 56] | 6 | 25 |  | 
11 | COc1c(C(=O)/C=C/c2ccco2)c(O)c(OC)c2occc12 [Example 45] | 4 | 20 |  | 
12 | COc1c(C(=O)/C=C/c2cccc(Oc3ccc(Cl)cc3)c2)c(O)c(OC)c2occc12 [Example 35] |  |  | 107 to 108 | Effect on Kv1.3 ([1]; at 5 μM): no effect at 5 μM Not tested against other channels
13 | COc1c(C(=O)/C=C/c2cccc(F)c2)c(O)c(OC)c2occc12 [Example 16] | 4 | 35 | 121 to 123 | 
14 | COc1c(C(=O)/C=C/c2ccc(C)s2)c(O)c(OC)c2occc12 [Example 55] | 0.5 | 3 |  | Cytotoxicity (remark in Table 1) [2]: Cytotoxic Mp 103 Orange prisms
15 | CCN(CC)CCOc1ccc(/C=C/C(=O)c2c(O)c(OC)c3occc3c2OC)cc1 [Example 12] |  |  |  | Effect on Kv1.3 ([1]; at 10 μM): 10 μM no effect Not tested against other channels
16 | COc1c(C(=O)/C=C/c2ccccc2)c(OCc2ccccc2)c(OC)c2occc12 [Example 60] | 0.2 | 10 |  | 
17 | COc1c(C(=O)/C=C/c2ccc(C(F)(F)F)cc2)c(O)c(OC)c2occc12 [Example 33] | 4 | 10 |  | 
18 | COc1ccccc1/C=C/C(=O)c1c(O)c(OC)c2occc2c1OC [Example 25] | 1 | 5 | 117 to 118 | 
19 | COc1c(C(=O)/C=C/c2ccc3ccccc3c2)c(O)c(OC)c2occc12 [Example 39] |  |  |  | Effect on Kv1.3 ([1]; at 5 μM): no effect at 5 μM Not tested against other channels
20 | COc1c(C(=O)/C=C/c2ccc([N+](=O)[O-])cc2)c(O)c(OC)c2occc12 [Example 29] |  |  |  | Behaviour of stocks in the Kv1.3 test ([1]; stock solutions): Stocks precipitate
21 | CCOc1ccc(/C=C/C(=O)c2c(O)c(OC)c3occc3c2OC)cc1 [Example 14] | 1.5 | 10 |  | 
22 | COc1c(C(=O)/C=C/c2ccccc2C)c(O)c(OC)c2occc12 [Example 21] |  | 2 |  | Block phasic or not [1]: not phasic
23 | COc1c(C(=O)/C=C/c2ccc(C)cc2)c(O)c(OC)c2occc12 [Example 23] | 0.1 | 1.5 |  | EC50 [3]: 1.5 µM
24 | CCN(CC)c1ccc(/C=C/C(=O)c2c(O)c(OC)c3occc3c2OC)cc1 [Example 13] |  | 18 |  | Block phasic or not [1]: not phasic
25 | COc1c(C(=O)/C=C/c2ccc3ccccc3n2)c(O)c(OC)c2occc12 [Example 58] |  |  |  | Effect on Kv1.3 ([1]; at 5 μM): No effect at 5 μM
26 | COc1c(C(=O)/C=C/c2ccccc2C(=O)O)c(O)c(OC)c2occc12 [Example 41] |  |  |  | Effect on Kv1.3 ([1]; at 20 μM): no effect at 20 μM Not tested against other channels
27 | COc1c(C(=O)/C=C/c2ccc(N(C)C)cc2)c(O)c(OC)c2occc12 [Example 42] | 5 | 14 |  | 

Row | SMILES | Kd [1, 4] [µM] | Kd [1, 5] [µM] | melting point [°C] | also measured
28 | COc1c(C(=O)/C=C/c2ccc(O)cc2)c(O)c(OC)c2occc12 [Example 19] | 0.9 | 10 |  | 
29 | COc1c(C(=O)/C=C/c2ccccc2C(F)(F)F)c(O)c(OC)c2occc12 [Example 31] |  | 40 | 150 to 151 | Block phasic or not [1]: not phasic
30 | COc1c(C(=O)/C=C/c2cccc(C(F)(F)F)c2)c(O)c(OC)c2occc12 [Example 32] |  | 40 |  | Block phasic or not [1]: not phasic
31 | COc1c(C(=O)/C=C/c2cccn2C)c(O)c(OC)c2occc12 [Example 52] | 15 | 40 | 87 to 88 | 
32 | COc1c(C(=O)/C=C/c2cccc(Cl)c2)c(O)c(OC)c2occc12 [Example 8] |  | 15 |  | Block phasic or not [1]: not phasic
33 | COc1c(C(=O)/C=C/c2cccnc2)c(O)c(OC)c2occc12 [Example 48] | 9 | 20 |  | 
34 | COc1c(C(=O)/C=C/c2ccc(CO)o2)c(O)c(OC)c2occc12 [Example 46] |  |  | 120 to 121 | Effect on Kv1.3 ([1]; at 20 μM): no effect at 20 μM Not tested against other channels
35 | COc1c(C(=O)/C=C/c2c(F)c(F)c(F)c(F)c2F)c(O)c(OC)c2occc12 [Example 30] | 3.5 | 5 | 112 to 114 | 
36 | CCCOc1ccc(/C=C/C(=O)c2c(O)c(OC)c3occc3c2OC)cc1 [Example 4] |  | 45 | 74 to 75 | Block phasic or not [1]: not phasic
37 | COc1c(C(=O)/C=C/c2ccc(F)cc2)c(O)c(OC)c2occc12 [Example 17] | 1 | 8 |  | 
38 | COc1c(C(=O)/C=C/c2ccc([N+](=O)[O-])s2)c(O)c(OC)c2occc12 [Example 57] |  |  |  | Effect on Kv1.3 ([1]; at 10 μM): No effect at 10 μM
39 | COc1c(C(=O)/C=C/c2ccccc2O)c(O)c(OC)c2occc12 [Example 43] | 8 | 16 |  | 
40 | COc1c(C(=O)/C=C/c2ccc(Cl)cc2)c(O)c(OC)c2occc12 [Example 9] |  | 7 |  | Block phasic or not [1]: not phasic
41 | COc1c(C(=O)/C=C/c2ccccc2F)c(O)c(OC)c2occc12 [Example 15] | 12 | 90 |  | 
42 | COc1c(C(=O)/C=C/c2cccc(C)c2)c(O)c(OC)c2occc12 [Example 22] | 0.3 | 1.5 | 97 to 98 | 
43 | COc1c(C(=O)/C=C/c2ccc(C(C)C)cc2)c(O)c(OC)c2occc12 [Example 20] |  | 3 |  | Block phasic or not [1]: not phasic
44 | COc1c(C(=O)/C=C/c2ccncc2)c(O)c(OC)c2occc12 [Example 49] |  | 20 |  | Block phasic or not [1]: not phasic
45 | COc1c(C(=O)/C=C/c2cccc(Oc3cccc(C(F)(F)F)c3)c2)c(O)c(OC)c2occc12 [Example 36] |  |  |  | Effect on Kv1.3 ([1]; at 5 μM): no effect at 5 μM Not tested against other channels
46 | COc1c(C(=O)/C=C/c2ccc(-c3ccccc3)cc2)c(O)c(OC)c2occc12 [Example 5] |  | 30 | 122 to 124 | Block phasic or not [1]: not phasic
47 | COc1c(C(=O)/C=C/c2cccc(Oc3ccccc3)c2)c(O)c(OC)c2occc12 [Example 34] |  |  |  | Effect on Kv1.3 ([1]; at 5 μM): no effect at 5 μM Not tested against other channels
48 | COc1c(C(=O)/C=C/c2cccc(C)n2)c(O)c(OC)c2occc12 [Example 50] |  | 12 | 86 to 87 | Block phasic or not [1]: not phasic
49 | COc1c(C(=O)/C=C/c2c[nH]c3ccccc23)c(O)c(OC)c2occc12 [Example 47] |  |  | 138 to 140 | Effect on Kv1.3 ([1]; at 5 μM): no effect at 5 μM Not tested against other channels
50 | COc1c(C(=O)/C=C/c2cccc3ccccc23)c(O)c(OC)c2occc12 [Example 38] |  |  |  | Effect on Kv1.3 ([1]; at 5 μM): no effect at 5 μM Not tested against other channels
51 | COc1c(O)c(C(=O)CCc2ccccc2)c(OC)c2c1OCC2 [Example 3] |  | 2 |  | 
52 | COc1c(C(=O)/C=C/c2ccc3c(c2)OCO3)c(O)c(OC)c2occc12 [Example 26] | 1.5 | 9 | 139 to 140 | 
53 | COc1c(C(=O)/C=C/c2cccc(C#N)c2)c(O)c(OC)c2occc12 [Example 10] |  | 20 | 182 to 183 | Block phasic or not [1]: not phasic
54 | COc1c(C(=O)/C=C/c2ccccc2[N+](=O)[O-])c(O)c(OC)c2occc12 [Example 27] | 5 | 15 | 131 to 132 | 
